Measured values reported in US12351574B2, “Selective ligands for modulation of GIRK channels” (Northeastern University, priority 2018, dated 2025).

Columns and labels:
GIRK1/2(I-V) = molecular target: T1, GIRK1/2(I-V) (UniProt P48542+P48549, I97V); experiment: TEVC in Xenopus oocytes, single mutant GIRK1/2(I-V); assay type: cell-based, human GIRK1, mouse GIRK2; conditions: GIRK1/2(I-V) single mutant
T1 construct: expressed in transfected cells; host or cells: Xenopus laevis oocytes (cRNA injection)
T1 sequence (P48549 1-501): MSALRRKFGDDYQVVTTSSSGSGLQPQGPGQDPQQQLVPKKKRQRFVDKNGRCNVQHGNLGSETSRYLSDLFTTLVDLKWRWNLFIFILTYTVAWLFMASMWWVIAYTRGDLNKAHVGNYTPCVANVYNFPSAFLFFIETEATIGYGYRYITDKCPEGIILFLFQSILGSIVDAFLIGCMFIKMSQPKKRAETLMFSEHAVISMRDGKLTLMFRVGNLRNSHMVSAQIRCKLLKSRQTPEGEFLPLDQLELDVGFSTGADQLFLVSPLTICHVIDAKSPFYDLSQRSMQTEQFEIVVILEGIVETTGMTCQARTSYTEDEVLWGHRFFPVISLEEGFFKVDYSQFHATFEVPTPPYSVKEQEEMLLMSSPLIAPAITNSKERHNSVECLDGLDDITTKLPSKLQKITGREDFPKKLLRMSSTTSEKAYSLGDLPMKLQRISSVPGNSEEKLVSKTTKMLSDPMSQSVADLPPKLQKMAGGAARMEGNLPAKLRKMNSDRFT
T1 sequence (P48542 1-425 I97V): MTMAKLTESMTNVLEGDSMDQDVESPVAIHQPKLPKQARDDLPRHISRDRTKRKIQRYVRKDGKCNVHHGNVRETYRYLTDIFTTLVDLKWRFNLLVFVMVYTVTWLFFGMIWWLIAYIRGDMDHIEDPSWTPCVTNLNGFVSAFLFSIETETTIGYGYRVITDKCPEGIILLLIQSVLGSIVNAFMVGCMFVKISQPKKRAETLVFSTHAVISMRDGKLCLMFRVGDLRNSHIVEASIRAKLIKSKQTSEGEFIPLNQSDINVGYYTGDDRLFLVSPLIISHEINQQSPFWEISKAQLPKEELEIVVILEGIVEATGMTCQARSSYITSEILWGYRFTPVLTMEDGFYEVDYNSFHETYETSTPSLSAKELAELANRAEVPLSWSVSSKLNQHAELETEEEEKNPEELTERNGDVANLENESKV
Source text: (§1) Molecular biology: For Xenopus oocyte expression, human GIRK1 and human GIRK4 cDNAs were subcloned into pGEMHE. For mammalian expression, human GIRK1 and human GIRK4 cDNAs were subcloned into pcDNA3 and pcDNA3.1/V5-His B, respectively (Invitrogen). Mouse GIRK2 cDNA was subcloned in the dual-function vector, pXoom. Point mutations were introduced using a standard Pfu-based mutagenesis technique according to the QuikChange protocol (Agilent). Mutations were verified by sequencing.
(§2) Electrophysiology of oocytes: Whole-oocyte currents were measured by conventional two-electrode voltage clamp (TEVC) with a GeneClamp 500 amplifier (Axon Instruments). Agarose cushion microelectrodes were filled with 1.5% (w/v) agarose in 3 M KCl and were used with resistances between 0.1 and 1.5 megaohms. […] Barium-sensitive basal currents from both groups, 1) Vehicle, 2) single concentration at 10 μM and 3) multiple concentrations of ML297 or GAT compounds in the presence of HK solution, were assessed at −80 mV using TEVC. Barium-sensitive currents were normalized to average basal current in the vehicle solutions. The HK solution contained the following: 96 mM KCl, 1 mM NaCl, 1 mM MgCl2, 5 mM KOH/HEPES, pH 7.4. The barium solution consisted of HK+10 mM BaCl2. Five to ten oocytes from the same batch (same frog) were recorded for each group, and the experiments were repeated in at least four batches. Data acquisition and analysis were carried out using pClamp9 (Molecular Devices) and OriginPro (Microcal) software.
(§3) To test these computational predictions, the inventors mutated each or both of the two M1 key wild-type GIRK4 subunit residues to the corresponding GIRK2 residues (GIRK4-V92I, GIRK4-T94V, GIRK4-V92I/T94V or GIRK4-dm) and vice-versa the GIRK2 residues to the corresponding GIRK4 ones (GIRK2-I97V, GIRK2-V99T, GIRK2-I97V/V99T or GIRK2-dm) (FIG. 35). […]

GIRK1/4(V-I) = molecular target: T2, GIRK1/4(V-I) (Homo sapiens, UniProt P48544+P48549, V92I); experiment: TEVC in Xenopus oocytes, single mutant GIRK1/4(V-I); assay type: cell-based; conditions: GIRK1/4(V-I) single mutant
T2 construct: expressed in transfected cells; host or cells: Xenopus laevis oocytes (cRNA injection)
T2 sequence (P48549 1-501): T1 sequence (P48549 1-501)
T2 sequence (P48544 1-419 V92I): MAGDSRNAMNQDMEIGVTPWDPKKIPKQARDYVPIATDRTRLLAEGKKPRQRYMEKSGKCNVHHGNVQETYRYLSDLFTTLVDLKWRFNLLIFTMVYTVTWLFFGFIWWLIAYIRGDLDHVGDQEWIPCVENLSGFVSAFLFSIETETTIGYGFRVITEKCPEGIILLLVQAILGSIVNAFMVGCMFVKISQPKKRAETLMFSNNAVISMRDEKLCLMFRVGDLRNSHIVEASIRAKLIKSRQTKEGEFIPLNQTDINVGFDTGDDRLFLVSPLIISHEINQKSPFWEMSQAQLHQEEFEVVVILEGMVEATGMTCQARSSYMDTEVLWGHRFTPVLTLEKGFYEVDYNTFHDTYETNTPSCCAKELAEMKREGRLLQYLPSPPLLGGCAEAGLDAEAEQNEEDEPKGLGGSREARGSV
Source text: as §1, §2, §3

[1] = read-out: EMAX, % of the control GIRK1/2

Structure (SMILES): Cc1cc(NC(=O)Nc2ccc(Br)s2)n(-c2ccccc2)n1 [GAT1508, 1-(5-bromothiophen-2-yl)-3-(3-methyl-1-phenyl-1H-pyrazol-5-yl)urea]
- EC50 (GIRK1/2(I-V)): 500 ± 110 nM
- EMAX (GIRK1/2(I-V)): 1.61±0.03
- Emax (GIRK1/2(I-V); [1]): 42%
- EC50 (GIRK1/4(V-I)): 530 ± 150 nM
- EMAX (GIRK1/4(V-I)): 1.29±0.03
- Emax (GIRK1/4(V-I); [1]): 11%
